The subject of one test is small cell lung cancer. Put plainly: Treatment of patient with small cell lung cancer with micrometastasis to liver. The note with it: 5 mg i.v. every 10 days. The format is in vivo, human patient. How it is done:
Patient with small cell lung cancer, at middle and advanced stage, had micrometastasis to liver. […] Administer intravenous injection every 10 days, with 5 mg each time. 15 days later, dyspnoea and referred pain all vanished.

Test [1] concerns human breast cancer cell line 0404 MDA-MB-435. Put plainly: MDA-MB-435 human breast cancer animal model in BALB/c-nu nude mice. Type of test: in vivo, BALB/c-nu female nude mice. How it is done:
The experiment animals with tumor size of 100-200 MM^3 were randomized into four groups, at the 14th day after inoculation of cancer cells. There were 16 mice in each group, treated with different doses of low (0.5 mg/kg), medium (2 mg/kg), and high (5 mg/kg). The control group was treated with normal saline. Administer injection to the tumor surroundings every day after inoculation. The growth tumor volume was measured every 3 days. All experiment mice were killed at the 21st day; tumor growth rate was measured by volume and weight.

Another test deals with Breast cancer. As to the kind of experiment: Treatment of breast cancer in dogs. Type of test: in vivo. The note with it: 0.5 mg injected directly to the tumor every 15 days; 20th day. How it is done: Breast cancer were found in dogs, with tumor size of 45 mm×50 mm. NH2-Lys Arg Ala Ser Arg Asn Lys Ser Glu Lys Lys Arg Arg-COOH (SEQ ID NO: 20) was directly injected to the tumor, with 0.5 mg each time, and administration was given every 15 days.

In test [2] the test system is lung cancer existing carcinomatous metastasis to marrow. As to the kind of experiment: Treatment of patient with lung cancer with metastasis to marrow. The format is in vivo, human patient. Particulars: 2 mg i.v. every 5 days. How it is done:
Patient with lung cancer existing carcinomatous metastasis to marrow conducted radiotherapy. […] Intravenous injections were given every 5 days, with a dose of 2 mg each time, and one month as a course of treatment. In addition, antibiotics were accompanied to control complicated infection.

Test [3] concerns highly metastatic tumor HCT of human colon carcinoma cell line.
Method: The highly metastatic tumor HCT of human colon carcinoma cell line was inoculated into the forelimb armpit of BALB/c-nu, a kind of female nude mouse, with amount of 5 million tumor cells/per mouse. Five days later, the area of tumor cells implanted was directly treated by injection with the above-mentioned 14 mer peptide solution, by a dose of 5 mg/kg daily. The drug treatment group and control (saline) group were set up, with 25 mice in each side. The experiment mice were killed after 21 days, measuring the tumor weight. After weighing the tumor taken from each mouse, keep it in 4% formaldehyde. Paraffin section shed paraffin for 10 minutes through xylene, then deal with alcohol, stain in hematoxylin, and then stains with 0.5% eosine ethanol. After that, mount with neutral gum. Analyze under microscope and take films.
Where [4] appears, read: with radiotherapy and antibiotics.

Where no end group is shown, it is not given here.

On to “NH2-Arg Lys Glu Lys Ser Arg Asp Ala Ala Arg Cys Arg Arg-COOH (H-RKEKSRDAARCRR-OH) [13mer peptide]”, for which the “microscopic repeated test of sputum” value with small cell lung cancer (90th day) was “no malignant cells falling off”. The biopsy result in the test with small cell lung cancer (100th day) was “no malignant cells”. Also, in the test with small cell lung cancer (15 days later), the “dyspnoea and referred pain” value is on record as “all vanished”.

Consider “NH2-Arg Lys Glu Lys Ser Arg Asp Ala Ala Arg-COOH (H-RKEKSRDAAR-OH) [10 mer peptide]”, for which the “breast cancer growth in the animal model” value in test [1] (conclusion from Table 4) is recorded as “inhibit breast cancer growth”. Further, the “The volume of tumor sizes on average” value in test [1] (high dose 5 mg/kg daily, 3rd day) is 1.408 CM^3; in test [1] (high dose 5 mg/kg daily, 7th day) it was 1.461 CM^3; in test [1] (high dose 5 mg/kg daily, 10th day) it was 1.253 CM^3; in test [1] (high dose 5 mg/kg daily, 14th day), 2.211 CM^3; in test [1] (high dose 5 mg/kg daily, 17th day), 2.3635 CM^3; in test [1] (high dose 5 mg/kg daily, 21st day) it was 1.793 CM^3. Also, the “The volume of tumor sizes on average” value was determined as 1.475 CM^3 in test [1] (low dose 0.5 mg/kg daily, 3rd day); 3.313 CM^3 in test [1] (low dose 0.5 mg/kg daily, 7th day); 4.97 CM^3 in test [1] (low dose 0.5 mg/kg daily, 10th day); 7.668 CM^3 in test [1] (low dose 0.5 mg/kg daily, 14th day); 8.482 CM^3 in test [1] (low dose 0.5 mg/kg daily, 17th day); 8.953 CM^3 in test [1] (low dose 0.5 mg/kg daily, 21st day). Besides, the “The volume of tumor sizes on average” value in test [1] (medium dose 2 mg/kg daily, 3rd day) stood at 1.295 CM^3; in test [1] (medium dose 2 mg/kg daily, 7th day), 2.133 CM^3; in test [1] (medium dose 2 mg/kg daily, 10th day), 2.721 CM^3; in test [1] (medium dose 2 mg/kg daily, 14th day) it was 4.879 CM^3; in test [1] (medium dose 2 mg/kg daily, 17th day), 6.274 CM^3; in test [1] (medium dose 2 mg/kg daily, 21st day), 6.119 CM^3.

Turning to “NH2-Lys Arg Ala Ser Arg Asn Lys Ser Glu Lys Lys Arg Arg-COOH (H-KRASRNKSEKKRR-OH) [SEQ ID NO: 20]”, the “tumor (size 45 mm×50 mm)” value in the test with Breast cancer was “Tumor disappeared”.

In the case of RRKEKSRDAARSRR [14 mer peptide], the cancer status result in test [2] (one month as a course) is listed as “cancer free three months later”. For the same substance, in test [2] (setting [4]), the Skeleton ache symptom result is listed as “decreased after five days” and the osteodynia entry is given as “disappeared 20 days later”. For the same substance, the “experiment mice in the treatment group with tumors totally disappeared” value in test [3] (5 mg/kg daily injected at tumor area from day 5, killed after 21 days, 25 mice per group) is recorded as “four”. Also, in test [3] (5 mg/kg daily, treatment group vs saline control, FIG. 1(A)/1(B)), the “pathological section of tumor” value was “a lot of apoptotic bodies and cell debris were found in the central part of the tumor”.
